Holding throughout (type): physicochemical, human
A short description of data set [1]: GC/MS of serum sample: number of times of freezing and thawing (Table I). On the set-up: key to Rate of increase or decrease / Rate of increase or decrease (first value, increase): detection intensity relative to 2 freeze-thaw cycles = 1. The following applies: for Rate of increase or decrease: detection intensity relative to 1 at 2 times; for Number of times when compound is affected: detection intensity changed by 30% or more vs 2 times of freezing and thawing. An outline of the steps:
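Detection intensities are ratios to the value after two freeze–thaw cycles, which is set as 1, compared against 4, 6 and 10 cycles. Analysis used methoxymation and trimethylsilylation derivatization, then GC/MS with EI ionization and multiple reaction monitoring on a BPX5 column. Serum came from blood held at room temperature and spun at 3500 rpm for 5 min.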

Data set [2] in a line: GC/MS of blood plasma sample: number of times of freezing and thawing (Table C). The following applies: for Rate of increase or decrease: detection intensity relative to 1 at 2 times; for Increase or decrease: detection intensity; for Rate of increase or decrease (second value, decrease) / Rate of increase or decrease (first value, increase): different from individual to individual, relative to 1 at 2 times; for Rate of increase or decrease (second value, decrease): individuals with decrease; for Rate of increase or decrease (first value, increase): individuals with increase. On the procedure: (§1) At room temperature, 5 mL of blood from a healthy subject was taken into a blood-collecting vessel containing EDTA, and the blood-collecting vessel was inverted for mixing, then cooled, and allowed to stand at 4° C. Here, in order to investigate how the detection intensity of molecules contained in the sample was affected in a case where the time to cooling was set to 5 minutes or more as compared to that in a case where the time to cooling was set to 1 minute or less, preparations were performed under both the former condition and the latter condition. After standing, the blood sample was subjected to centrifugation under a condition of 4° C., 3000 rpm, and 15 minutes. […] After centrifugation, the blood-collecting vessel was left to stand at room temperature for 30 minutes, and the blood plasma was isolated during this 30 minutes. The obtained blood plasma sample was frozen and stored. Here, in order to investigate how the detection intensity of molecules contained in the sample was affected in cases where freezing and thawing was performed 4 times, 6 times, and 10 times after freezing as compared to that in a case where freezing and thawing was performed 2 times after freezing, freezing and thawing was performed under the respective conditions of 2, 4, 6, and 10 times.
(§2) Frozen blood plasma samples and serum samples were subjected to GC/MS or LC/MS. In GC/MS, the blood plasma samples and serum samples were subjected to methoxymation and trimethylsilylation and then introduced to GC-MS.
(§3) GC/MS was conducted using GCMS·TQ8040 (Shimadzu Corporation) that was a GC·MS equipped with AOC·20i (Shimadzu Corporation) as an autosampler.
(§4) Column: BPX5 (inner diameter of 0.25 mm, length of 30 m, and film thickness of 0.25 μm) (SGE)
(§5) Column temperature: maintained at 60° C. for 2 minutes, then raised at 15° C./min, and maintained at 330° C. for 3 minutes.
(§6) Inlet temperature: 250° C.
(§7) Carrier gas control mode: constant linear velocity of 39.0 cm/sec
(§8) Sample introduction method: split (split ratio of 30:1) Injection volume: 1 μL
(§9) Ionization method: electron ionization
(§10) Ionization current: 60 μA
(§11) Interface temperature: 280° C.
(§12) Ion source temperature: 200° C.
(§13) Mode: multiple reaction monitoring (MRM)
The rate of increase or decrease in Table C is the value of detection intensity relative to 1 that is the detection intensity in a case where the number of times of freezing and thawing is set to 2 times.

Data set [3] can be described thus: GC/MS of serum sample: time from centrifugation to isolation (Table H). Also on record: key to Rate of increase or decrease / Rate of increase or decrease (first value, increase): detection intensity relative to 1 at 30 min centrifugation-to-isolation. The following applies: for Rate of increase or decrease: detection intensity relative to 1 at 30 minutes; for Increase or decrease: detection intensity. An outline of the steps: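 Values are GC/MS (EI, MRM) detection intensities of methoxymated/trimethylsilylated serum, normalised to 1 for the 30-min sample. Serum was isolated 30 min, 1 h or 6 h after room-temperature centrifugation (3500 rpm, 5 min) of blood.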

The nature of data set [4]: GC/MS of serum sample: time from blood collection to centrifugation (Table G). The conditions noted are these: blood collection to centrifugation; for Rate of increase or decrease: detection intensity relative to 1 at 15 minutes; for Increase or decrease: detection intensity. An outline of the steps:
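Values express detection intensity as a ratio to the sample centrifuged 15 minutes after blood collection (taken as 1). Serum was derivatized by methoxymation and trimethylsilylation, then analysed by electron-ionization GC/MS using multiple reaction monitoring on a BPX5 column ramped from 60 to 330° C.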

Data set [5] is described as follows: GC/MS of blood plasma sample: time from blood collection to centrifugation (Table A). The following applies: for Rate of increase or decrease: detection intensity relative to 1 at 15 minutes; for Rate of increase or decrease / Increase or decrease: blood collection to centrifugation; for Increase or decrease: detection intensity. As to the method:
as §1, §2, §3, §4, §5, §6, §7, §8, §9, §10, §11, §12, §13
The rate of increase or decrease in Table A is the value of detection intensity relative to 1 that is the detection intensity in a case where the time from blood collection to centrifugation is set to 15 minutes.

Setting [6] is: freezing and thawing 10 times vs 2 times.
Setting [7] is: freezing and thawing 4 times vs 2 times.
Setting [8] is: serum sample, GC/MS, detection intensity vs 2 times of freezing and thawing.
Where [9] appears, read: freezing and thawing 6 times vs 2 times.

Values joined by “and” are separate entries in the source; they are usually repeats but may differ in a detail not shown here. Identical values can stand only once. Counter-ions that a name gives are not always drawn.

Take `CCCCCCCCCCCCCCCCO` [1-Hexadecanol (cetanol), 1-Hexadecanol]: the Increase or decrease result is on record as “Different from individual” in data set [1] (detection intensity, serum, GC/MS, freezing and thawing 10 times vs 2 times); “Increase” in data set [2] (setting [6]); “Increase” in data set [3] (after 1 hour vs 30 minutes); “Increase” in data set [4] (after 12 hours vs 15 minutes); “Decrease” in data set [5] (after 4 hours vs 15 minutes). In data set [1] (different from individual to individual, individuals with decrease, relative to 1 at 2 times, serum, GC/MS, freezing and thawing 10 times), the “Rate of increase or decrease (second value, decrease)” value came to 0.70. Also, the “Rate of increase or decrease (first value, increase)” value in data set [1] (different from individual to individual, individuals with increase, relative to 1 at 2 times, serum, GC/MS, freezing and thawing 10 times) was 1.34. Also, the “Rate of increase or decrease” value was found to be 1.88 in data set [2] (freezing and thawing 10 times); 1.36 in data set [3] (after 1 hour); 1.38 in data set [4] (after 12 hours); 0.60 in data set [5] (after 4 hours).

`O=C1O[C@H]([C@@H](O)CO)C(O)=C1O` [Ascorbic acid]: the “Rate of increase or decrease” value came to 1.41 in data set [2] (freezing and thawing 4 times); 0.62 in data set [4] (after 4 hours); 1.77 in data set [5] (after 4 hours). The Increase or decrease result is on record as “Increase” in data set [2] (setting [7]), “Decrease” in data set [4] (after 4 hours vs 15 minutes) and “Increase” in data set [5] (after 4 hours vs 15 minutes).

Turning to `OB(O)O` [Boric acid], the “Rate of increase or decrease” value in data set [1] (serum, GC/MS, freezing and thawing 4 times) is recorded as 0.63; in data set [2] (freezing and thawing 4 times), 1.56; in data set [3] (after 1 hour), 2.06. The Increase or decrease result in data set [1] (detection intensity, serum, GC/MS, freezing and thawing 4 times vs 2 times) is recorded as “Decrease”; in data set [2] (setting [7]), “Increase”; in data set [3] (after 1 hour vs 30 minutes), “Increase”.

As for `CCCCCC(=O)O` [Cabroic acid], in data set [1] (serum sample, GC/MS), the “Number of times when compound is affected” value is reported as 10 times. Also, the Increase or decrease result in data set [1] (setting [8]) and in data set [2] (setting [7]) was “Increase” in each case. The “Rate of increase or decrease” value in data set [2] (freezing and thawing 4 times) is 1.58.

Take `Nc1cc[nH]c(=O)n1` [Cytosine]: the Increase or decrease result in data set [2] (setting [9]) is listed as “Different from individual”. Further, in data set [2] (freezing and thawing 6 times), the “Rate of increase or decrease (second value, decrease)” value is reported as 0.62 and the “Rate of increase or decrease (first value, increase)” value amounted to 1.93. In addition, the “Rate of increase or decrease” value in data set [5] (after 4 hours) was 1.50. In addition, the Increase or decrease result in data set [5] (after 4 hours vs 15 minutes) is on record as “Increase”.

As to `O=C[C@H](O)[C@@H](O)[C@@H](O)[C@H](O)C(=O)O` [Galacturonic acid], the “Rate of increase or decrease” value in data set [2] (freezing and thawing 4 times) was 1.44; in data set [3] (after 1 hour) it was 1.87; in data set [4] (after 8 hours), 0.60 and 0.64. For the same compound, the figures for the Increase or decrease entry in data set [2] (setting [7]), in data set [3] (after 1 hour vs 30 minutes) and in data set [4] (after 8 hours vs 15 minutes) were “Increase”, “Increase” and “Decrease”, respectively.

In the case of `O=S(=O)(O)Oc1c[nH]c2ccccc12` [Indoxyl sulfate], the “Rate of increase or decrease” value in data set [2] (freezing and thawing 6 times) stood at 0.68; in data set [5] (after 12 hours), 1.50. Moreover, the results for the Increase or decrease result in data set [2] (setting [9]) and in data set [5] (after 12 hours vs 15 minutes) were “Decrease” and “Increase”, respectively.

Turning to `CCCCCCCCCCCCCCCCCC(=O)OCC(O)CO` (stereo not drawn) [Monostearin], the “Rate of increase or decrease” value in data set [1] (10 times of freezing and thawing) came to 0.60; in data set [2] (freezing and thawing 6 times), 0.67; in data set [3] (after 6 hours), 2.08; in data set [4] (after 4 hours), 1.98; in data set [5] (after 12 hours), 1.35. Also, the “Number of times when compound is affected” value in data set [1] (serum sample, GC/MS) turned out to be 10 times. Besides, the Increase or decrease result in data set [1] (setting [8]) is “Decrease”; in data set [2] (setting [9]), “Decrease”; in data set [3] (after 6 hours vs 30 minutes), “Increase”; in data set [4] (after 4 hours vs 15 minutes), “Increase”; in data set [5] (after 12 hours vs 15 minutes), “Increase”.

As for `CCCCCCCCCCCCCCCCCCO` [Octadecanol], the “Rate of increase or decrease” value in data set [1] (serum, GC/MS, freezing and thawing 6 times) is reported as 1.64; in data set [3] (after 1 hour), 2.08; in data set [5] (after 4 hours), 1.62. The Increase or decrease entry in data set [1] (detection intensity, serum, GC/MS, freezing and thawing 6 times vs 2 times) was “Increase”; in data set [2] (setting [9]) it was “Different from individual”; in data set [3] (after 1 hour vs 30 minutes), “Increase”; in data set [4] (after 4 hours vs 15 minutes), “Increase”; in data set [5] (after 4 hours vs 15 minutes), “Increase”. Besides, the “Rate of increase or decrease (second value, decrease)” value in data set [2] (freezing and thawing 6 times) came to 0.68. In addition, the “Rate of increase or decrease (first value, increase)” value in data set [2] (freezing and thawing 6 times) came to 1.63.

`O=C(O)[C@H](O)[C@H](O)[C@H](O)CO` [Ribonic acid]: the “Rate of increase or decrease” value was found to be 1.62 in data set [2] (freezing and thawing 4 times); 1.46 in data set [4] (after 12 hours); 0.17 in data set [5] (after 4 hours). The figures for the Increase or decrease entry in data set [2] (setting [7]), in data set [4] (after 12 hours vs 15 minutes) and in data set [5] (after 4 hours vs 15 minutes) were “Increase”, “Increase” and “Decrease”, respectively.

As for `O[C@H]1[C@H](O)[C@@H](O)[C@H](O)[C@@H](O)[C@@H]1O` [Scyllo-inositol], the “Rate of increase or decrease” value in data set [2] (freezing and thawing 6 times) is recorded as 0.68; in data set [4] (after 8 hours), 0.66. In addition, the Increase or decrease result in data set [2] (setting [9]) and in data set [4] (after 8 hours vs 15 minutes) was “Decrease” each time.

For `NCCc1c[nH]c2ccccc12` [Tryptamine], in data set [2] (freezing and thawing 10 times), the “Rate of increase or decrease” value is listed as 0.69. Also, the Increase or decrease result in data set [2] (setting [6]) is reported as “Decrease”.

On to `O=C[C@H](O)[C@@H](O)[C@H](O)CO` [Xylose], for which the “Rate of increase or decrease” value turned out to be 0.68 in data set [2] (freezing and thawing 6 times); 1.47 in data set [4] (after 4 hours); 0.68 in data set [4] (after 8 hours). The Increase or decrease result in data set [2] (setting [9]) is given as “Decrease”; in data set [4] (after 4 hours vs 15 minutes) it was “Increase”; in data set [4] (after 8 hours vs 15 minutes), “Decrease”; in data set [5] (after 4 hours vs 15 minutes), “Different from individual”. In addition, the “Rate of increase or decrease (second value, decrease)” value in data set [5] (different from individual to individual, individuals with decrease, relative to 1 at 15 minutes, collection to centrifugation, after 4 hours) amounted to 0.69. Also, the “Rate of increase or decrease (first value, increase)” value in data set [5] (different from individual to individual, individuals with increase, relative to 1 at 15 minutes, collection to centrifugation, after 4 hours) was 1.68.
